Assay in all cases: AK assay 384-well format, Prestwick library screening
In one assay the test system is E. faecium. In kind it is cell-based, Enterococcus faecium. The following applies: 50 μM final drug concentration; for fold induction at 50 µM: Enterococcus faecium, 3 h.
The test system of assay [1] is S. aureus strain USA300-0114. The format is cell-based, Staphylococcus aureus. The following applies: 50 μM final drug concentration; for fold induction at 50 µM: Staphylococcus aureus, USA300, 3 h.
The subject of the next assay is K. pneumoniae. The format is cell-based, Klebsiella pneumoniae. The following applies: 50 μM final drug concentration; for fold induction at 50 µM: Klebsiella pneumoniae, 3 h.
Assay [2] concerns A. baumannii strain 98-37-09. In kind it is cell-based, Acinetobacter baumannii. The following applies: 50 μM final drug concentration; for fold induction at 50 µM: Acinetobacter baumannii, 983709, 3 h.
The test system of a further assay is P. aeruginosa. In kind it is cell-based, Pseudomonas aeruginosa. The following applies: 50 μM final drug concentration; for fold induction at 50 µM: Pseudomonas aeruginosa, 3 h.
The test system of another assay is E. cloacae. The format is cell-based, Enterobacter cloacae. The following applies: 50 μM final drug concentration; for fold induction at 50 µM: Enterobacter cloacae, 3 h.
The test system of a further assay is E. coli. The format is cell-based, Escherichia coli. The following applies: 50 μM final drug concentration; for fold induction at 50 µM: Escherichia coli, 3 h.
Where [3] appears, read: planktonic E. faecium, positive cutoff 3-fold increase, read-out: AK-based Prestwick library screening result, E. faecium (fold increase in extracellular AK activity).
[4] abbreviates: planktonic S. aureus, positive cutoff 3-fold increase, read-out: AK-based Prestwick library screening result, S. aureus (fold increase in extracellular AK activity).
Where [5] appears, read: planktonic K. pneumoniae, positive cutoff 3-fold increase, read-out: AK-based Prestwick library screening result, K. pneumoniae (fold increase in extracellular AK activity).
Where [6] appears, read: planktonic A. baumannii, positive cutoff 3-fold increase, read-out: AK-based Prestwick library screening result, A. baumannii (fold increase in extracellular AK activity).
Setting [7] is: planktonic P. aeruginosa, positive cutoff 3-fold increase, read-out: AK-based Prestwick library screening result, P. aeruginosa (fold increase in extracellular AK activity).
The mark [8] stands for this setting: planktonic E. cloacae, positive cutoff 3-fold increase, read-out: AK-based Prestwick library screening result, E. cloacae (fold increase in extracellular AK activity).
The mark [9] stands for this setting: planktonic E. coli, positive cutoff 3-fold increase, read-out: AK-based Prestwick library screening result, E. coli (fold increase in extracellular AK activity).
The mark [10] stands for this setting: 384-well format, cutoff for positive-scoring molecules 3-fold increase, read-out: AK-based Prestwick Library Screening Results, E. faecium (increase in extracellular AK activity).
The mark [11] stands for this setting: 384-well format, cutoff for positive-scoring molecules 3-fold increase, read-out: AK-based Prestwick Library Screening Results, S. aureus (increase in extracellular AK activity).
[12] abbreviates: 384-well format, cutoff for positive-scoring molecules 3-fold increase, read-out: AK-based Prestwick Library Screening Results, K. pneumoniae (increase in extracellular AK activity).
Setting [13] is: 384-well format, cutoff for positive-scoring molecules 3-fold increase, read-out: AK-based Prestwick Library Screening Results, A. baumannii (increase in extracellular AK activity).
Setting [14] is: 384-well format, cutoff for positive-scoring molecules 3-fold increase, read-out: AK-based Prestwick Library Screening Results, P. aeruginosa (increase in extracellular AK activity).
Where [15] appears, read: 384-well format, cutoff for positive-scoring molecules 3-fold increase, read-out: AK-based Prestwick Library Screening Results, E. cloacae (increase in extracellular AK activity).
The mark [16] stands for this setting: 384-well format, cutoff for positive-scoring molecules 3-fold increase, read-out: AK-based Prestwick Library Screening Results, E. coli (increase in extracellular AK activity).

Structures can show the parent of a compound that is named as a salt. Where two headings read alike, the source gives them in different places.

Take `CC[N+](C)(C)c1cccc(O)c1` [Edrophonium chloride]: the fold induction at 50 µM in the assay with E. faecium (384-well format, […], read-out: AK-based Prestwick Library Screening Results, E. faecium (increase in extracellular AK activity)) worked out at 0.8; in assay [1] (384-well format, […], read-out: AK-based Prestwick Library Screening Results, S. aureus (increase in extracellular AK activity)) it was 0.4; with K. pneumoniae (384-well format, […], read-out: AK-based Prestwick Library Screening Results, K. pneumoniae (increase in extracellular AK activity)) it was 0.5; in assay [2] (384-well format, […], read-out: AK-based Prestwick Library Screening Results, A. baumannii (increase in extracellular AK activity)) it was 0.4; with P. aeruginosa (384-well format, […], read-out: AK-based Prestwick Library Screening Results, P. aeruginosa (increase in extracellular AK activity)), 0.4; in the assay with E. cloacae (384-well format, […], read-out: AK-based Prestwick Library Screening Results, E. cloacae (increase in extracellular AK activity)) it was 0.3. In addition, in the assay on E. coli (384-well format, […], read-out: AK-based Prestwick Library Screening Results, E. coli (increase in extracellular AK activity)), the fold induction at 50 µM turned out to be 0.4.

Consider `Cc1c(OCC(F)(F)F)ccnc1C[S+]([O-])c1nc2ccccc2[nH]1` (stereo not drawn) [Lansoprazole], for which the fold induction at 50 µM is 0.6 in the assay on E. faecium (setting [3]); 0.2 in assay [1] (setting [4]); 0.5 in the assay on K. pneumoniae (setting [5]); 0.6 in assay [2] (setting [6]); 0.7 with P. aeruginosa (setting [7]); 1 in the assay on E. cloacae (setting [8]). Also, the fold induction at 50 µM in the assay on E. coli (setting [9]) is 0.6.

Take `CC(N)CCCC(C)(C)O` (stereo not drawn) [Heptaminol hydrochloride]: the fold induction at 50 µM in the assay with E. faecium (setting [10]) came to 0.9; in assay [1] (setting [11]), 0.7; in the assay with K. pneumoniae (setting [12]), 0.5; in assay [2] (setting [13]), 0.6; with P. aeruginosa (setting [14]), 0.5; in the assay on E. cloacae (setting [15]), 0.7. In addition, the fold induction at 50 µM in the assay with E. coli (setting [16]) came to 0.8.

`COc1ccc2c3c([nH]c2c1)C(C)=NCC3` [Harmaline hydrochloride dihydrate]: the fold induction at 50 µM with E. faecium (planktonic, […], read-out: AK-based Prestwick Library Screening Results, E. faecium (fold increase in extracellular AK activity)) turned out to be 1; in assay [1] (planktonic, […], read-out: AK-based Prestwick Library Screening Results, S. aureus (fold increase in extracellular AK activity)), 1.4; in the assay on K. pneumoniae (planktonic, […], read-out: AK-based Prestwick Library Screening Results, K. pneumoniae (fold increase in extracellular AK activity)), 0.9; in assay [2] (planktonic, […], read-out: AK-based Prestwick Library Screening Results, A. baumannii (fold increase in extracellular AK activity)), 1; with P. aeruginosa (planktonic, […], read-out: AK-based Prestwick Library Screening Results, P. aeruginosa (fold increase in extracellular AK activity)), 1; in the assay on E. cloacae (planktonic, […], read-out: AK-based Prestwick Library Screening Results, E. cloacae (fold increase in extracellular AK activity)) it was 1.3. For the same compound, in the assay on E. coli (planktonic, […], read-out: AK-based Prestwick Library Screening Results, E. coli (fold increase in extracellular AK activity)), the fold induction at 50 µM is 1.1.

With `CCc1cccc2c3c([nH]c12)C(CC)(CC(=O)O)OCC3` (stereo not drawn) [Etodolac], the fold induction at 50 µM in the assay on E. faecium (planktonic E. faecium, 384-well, cutoff for positive-scoring molecules 3-fold increase, read-out: AK-based Prestwick Library Screening Results: E. faecium (increase in extracellular AK activity)) came out at 1.1; in assay [1] (planktonic S. aureus, 384-well, cutoff for positive-scoring molecules 3-fold increase, read-out: AK-based Prestwick Library Screening Results: S. aureus (increase in extracellular AK activity)) it was 1; in the assay with K. pneumoniae (planktonic K. pneumoniae, 384-well, cutoff for positive-scoring molecules 3-fold increase, read-out: AK-based Prestwick Library Screening Results: K. pneumoniae (increase in extracellular AK activity)) it was 1.3; in assay [2] (planktonic A. baumannii, 384-well, cutoff for positive-scoring molecules 3-fold increase, read-out: AK-based Prestwick Library Screening Results: A. baumannii (increase in extracellular AK activity)), 1.4; in the assay with P. aeruginosa (planktonic P. aeruginosa, 384-well, cutoff for positive-scoring molecules 3-fold increase, read-out: AK-based Prestwick Library Screening Results: P. aeruginosa (increase in extracellular AK activity)) it was 1.5; in the assay with E. cloacae (planktonic E. cloacae, 384-well, cutoff for positive-scoring molecules 3-fold increase, read-out: AK-based Prestwick Library Screening Results: E. cloacae (increase in extracellular AK activity)), 1.2. In addition, the fold induction at 50 µM in the assay with E. coli (planktonic E. coli, 384-well, […], read-out: AK-based Prestwick Library Screening Results: E. coli (increase in extracellular AK activity)) was 1.2.

As to `C[N+]1(C)CCOC(O)(c2ccc(-c3ccc(C4(O)C[N+](C)(C)CCO4)cc3)cc2)C1.[Br-].[Br-]` (stereo not drawn) [Hemicholinium bromide], the “AK-based Prestwick Library Screening Results, E. faecium (fold increase in extracellular AK activity)” value in the assay with E. faecium (planktonic, […]) turned out to be 0.9. In assay [1] (planktonic, […]), the “AK-based Prestwick Library Screening Results, S. aureus (fold increase in extracellular AK activity)” value stood at 1.0. Also, the “AK-based Prestwick Library Screening Results, K. pneumoniae (fold increase in extracellular AK activity)” value with K. pneumoniae (planktonic, […]) came to 1.0. In addition, in assay [2] (planktonic, […]), the “AK-based Prestwick Library Screening Results, A. baumannii (fold increase in extracellular AK activity)” value is 1.2. Moreover, the “AK-based Prestwick Library Screening Results, P. aeruginosa (fold increase in extracellular AK activity)” value in the assay on P. aeruginosa (planktonic, […]) is listed as 0.9. Further, the “AK-based Prestwick Library Screening Results, E. cloacae (fold increase in extracellular AK activity)” value in the assay with E. cloacae (planktonic, […]) is on record as 2.0. Moreover, the “AK-based Prestwick Library Screening Results, E. coli (fold increase in extracellular AK activity)” value with E. coli (planktonic, […]) is 1.1.

Turning to `Nc1ccc(S(=O)(=O)Nc2ccnn2-c2ccccc2)cc1` [Sulfaphenazole], the fold induction at 50 µM with E. faecium (setting [10]) came to 0.8; in assay [1] (setting [11]), 0.8; in the assay with K. pneumoniae (setting [12]), 0.7; in assay [2] (setting [13]), 1.4; with P. aeruginosa (setting [14]) it was 0.8; in the assay with E. cloacae (setting [15]), 0.8. For the same compound, the fold induction at 50 µM in the assay on E. coli (setting [16]) worked out at 0.8.

Regarding (−)-MK 801 hydrogen maleate, in the assay on E. faecium ([…]), the “AK-based Prestwick Library Screening Results, E. faecium (fold increase in extracellular AK activity)” value was 1.0. For the same compound, in assay [1] ([…]), the “AK-based Prestwick Library Screening Results, S. aureus (fold increase in extracellular AK activity)” value is 1.1. The “AK-based Prestwick Library Screening Results, K. pneumoniae (fold increase in extracellular AK activity)” value with K. pneumoniae ([…]) is 1.0. Moreover, in assay [2] ([…]), the “AK-based Prestwick Library Screening Results, A. baumannii (fold increase in extracellular AK activity)” value was determined as 1.1. In addition, the “AK-based Prestwick Library Screening Results, P. aeruginosa (fold increase in extracellular AK activity)” value in the assay on P. aeruginosa ([…]) is 1.3. Moreover, in the assay on E. cloacae ([…]), the “AK-based Prestwick Library Screening Results, E. cloacae (fold increase in extracellular AK activity)” value was 1.9. The “AK-based Prestwick Library Screening Results, E. coli (fold increase in extracellular AK activity)” value with E. coli ([…]) worked out at 1.2.

As to `CN(C)CCOC(=O)C(c1ccccc1)C1(O)CCCC1` (stereo not drawn) [Cyclopentolate hydrochloride], the fold induction at 50 µM came out at 1 with E. faecium (setting [3]); 1.1 in assay [1] (setting [4]); 1 in the assay on K. pneumoniae (setting [5]); 1 in assay [2] (setting [6]); 1.1 with P. aeruginosa (setting [7]); 1.3 in the assay with E. cloacae (setting [8]). The fold induction at 50 µM in the assay on E. coli (setting [9]) is 1.2.

For the origin of these results see patent US10004701B2, “Methods and compositions for treating infection” (UNIVERSITY OF ROCHESTER, priority 2012, dated 2018).
